# Key:
# [1] = biological target: T1, mitochondrial F1F0-ATPase (Bos taurus, UniProt P13621); test: ATPase activity in sub-mitochondrial particles (SMPs); type: biochemical, bovine; settings: at 80 μM
# T1 construct: from tissue
# Text: Oligomycin, a macrolide natural product that binds to the mitochondrial F1F0-ATPase, induces a state 3 to 4 transition and generates O2^− like Bz-423. Based on these similarities, it is possible that the F1F0-ATPase is also the molecular target for Bz-423. To test this hypothesis, the effect of Bz-423 on ATPase activity in sub-mitochondrial particles (SMPs) was examined.
# >40 derivatives of Bz-423 were developed to determine the elements on this novel agent required for biological activity. […] The potency of these analogues in cell based assays correlated with the ED50 values in ATPase inhibition experiments using SMPs.
# [2] = tested on: B cells; test: collapse of mitochondrial transmembrane potential, DiOC6(3); type: cell-based; settings: by 5 hours
# Description: To detect O2^−, cells are incubated with DHE (10 μM) for 30 min at 37° C. and are analyzed by flow cytometry to measure ethidium fluorescence. Flow analysis of mitochondrial transmembrane potential (ψm) is conducted by labeling cells with DiOC6(3) (20 nM) for 15 min at 37 degrees C. A positive control for disruption of ψm is established using carbonyl cyanide m-chlorophenylhydrazone (CCCP, 50 μM). Caspase activation assays are performed with FAM-VAD-fluoromethylketone. Processing of the substrate is evaluated by flow cytometry.
# To characterize the death mechanism engaged by Bz-423, intracellular ROS, ΔΨm, cytochrome c release, caspase activation, and DNA fragmentation were measured over time (the results presented are for B cells but do characterize the response in many different cell types). The first event detected after exposure to Bz-423 is an increase in the fraction of cells that stain with dihyroethedium (DHE), a redox-sensitive agent that reacts specifically with O2^−.
# Collapse of ΔΨm was detected using DiOC6(3), a mitochondria-selective potentiometric probe.
# [3] = tested on: sub-mitochondrial particles; test: redox cycling, NADH and NAD(P)H oxidation assays with sub-mitochondrial particles; type: biochemical; settings: SMPs
# Description: By contrast, replacing the hydroxyl with chlorine or azide, or methylating the phenol effectively abolishes the cytotoxic activity of Bz-423. […] Such agents accept an electron from MRC enzymes and transfer it back to the chain at point of higher reducing potential. This type of ‘redox cycling’ consumes endogenous reducing equivalents (e.g., glutathione) along with […] nucleotides and results in cell death. To distinguish between these alternatives, it was determined whether Bz-423 redox cycles in the presence of sub-mitochondrial particles using standard NADH and NAD(P)H oxidation assays.
# [4] = tested on: Namalwa ρ0 cells; test: ROS response in cells devoid of mtDNA; type: cell-based
# Description: ROS in response to Bz-423. Complexes I-IV in the MRC are partially encoded by mitochondrial DNA (mtDNA). […] Because ethidium bromide is toxic to Ramos cells, these experiments were conducted with Namalwa B cells, another mature B cell line.
# [5] = tested on: migration inhibitory factor (MIF); test: gene expression profiling of treated cells; type: cell-based, human
# Text: In response to antigenic or mitogenic stimulation, lymphocytes secrete protein mediators, one of which is named migration inhibitory factor (MIF) for its ability to prevent the migration of macrophages in vitro. MIF may be an anti-tumor agent. In addition, the ability of MIF to prevent the migration of macrophages may be exploited for treating wounds. MIF may alter the immune response to different antigens. MIF links chemical and immunological detoxification systems. MIF was induced approximately 10-fold by Bz-423. Thus, the present invention contemplates the use of MIF as a target of the compounds of the present invention.
# In vitro testing with Ramos cells to determine the changes in gene expression (at the level of mRNA) induced by Bz-423 was performed by culturing cells at a density of 500,000 cells per ml. Solvent control (DMSO, final concentration 0.1% V/V]), Bz-423, or Bz-OMe (10 μM) was added to cells. After 4 h, cells were harvested and RNA prepared using Trizol Reagent (#15596-018, Life Technologies, Rockville, Md.) and the RNeasy Maxi Kit (#75162, Qiagen, Valencia, Calif.) according to manufacturers protocols. Single stranded cDNA was synthesized by reverse transcription using poly (A) RNA present in the starting total RNA sample. […] Hybridization results were quantified using a GeneArray scanner and analysis carried out according to the instructions provided by Affymetrix.
# [6] = tested on: ornithine decarboxylase (ODC); test: ODC activity in treated cells, conversion of 3H-ornithine to putrescine; type: cell-based; settings: cells treated 4 h
# Description: In these experiments, the conversion of ornithine to putrescine was quantified using ^3H-ornithine. For comparisons, control cells were treated with vehicle control or difluoromethyl ornithine (DFMO), a potent inhibitor of ornithine decarboxylase (like Bz-423, DFMO is a potent anti-proliferative agent). […] The reduction in ODC activity was paralleled by a decrease in ODC protein levels measured under the same conditions.
# As described above, Bz-423 induced apoptosis was signaled by an ROS response that arose from MRC complex III as a result of the state 3 to 4 transition. It was next sought to determine if the ROS response, critical for apoptosis, also mediated these effects on ODC. If the ROS was required for the decrease in ODC activity, it would likewise be implicated as potentially part of the anti-proliferative response to Bz-423. To test this, Ramos cells were treated with Bz-423, DFMO, or vehicle control for 4 h. In parallel, a second group of cells was pre-incubated with MnTBAP to limit the ROS and then cultured with Bz-423, DFMO, and vehicle control.
# [7] = tested on: Ramos cells; test: cytotoxicity versus antiproliferation in media with 10% FBS; type: cell-based, human; settings: >20 μM
# Description: Like most 1,4-benzodiazepines, Bz-423 binds strongly to bovine serum albumin (BSA), which reduces the effective concentration of drug free in solution. For example, in tissue culture media containing 10% (v/v) fetal bovine serum (FBS), ca. 99% of the drug is bound to BSA. Therefore, cell culture cytotoxicity assays are conducted in media with 2% FBS to reduce binding to BSA and increase the free [Bz-423]. Under these conditions, the dose response-curve is quite sharp such that there is a limited concentration range at which Bz-423 is only partly effective. Since some benzodiazepines are known to have anti-proliferative properties, the effect of Bz-423 at concentrations <ED50 were carefully analyzed and observed that in addition to inducing apoptosis, Bz-423 prevented cell growth after 3 d in culture. In these low serum conditions, the cytotoxic and anti-proliferative effects overlapped making it difficult to study each effect independently. […] While higher amounts of drug may also block proliferation, it caused apoptosis well before the effects on proliferation could be observed.
# [8] = tested on: isolated rat liver mitochondria; test: ROS production in isolated mitochondria (DCF formation); type: biochemical; settings: for ROS production: mitochondria in state 4; for increase of the rate of ROS production versus control: state 3 respiration, after the induction phase
# Description: Male Long Evans rats are starved overnight and sacrificed by decapitation. Liver samples are homogenized in ice cold buffer A (250 mM sucrose, 10 mM Tris, 0.1 mM EGTA, pH 7.4), and nuclei and cellular debris are pelleted ([…], 830g, 4° C.). Mitochondria are collected by centrifugation (10 min, 15,000g, 4° C.), and the supernatant is collected as the S15 fraction. The mitochondrial pellet is washed three times with buffer B (250 mM sucrose, 10 mM Tris, pH 7.4), and re-suspended in buffer B at 20-30 mg/mL. Mitochondria are diluted (0.5 mg/mL) in buffer C (200 mM sucrose, 10 mM Tris, pH 7.4, 1 mM KH2PO4, 10 μM EGTA, 2.5 μM rotenone, 5 mM succinate) containing 2′,7′-dichlorodihydrofluorescin diacetate (DCFH-DA, 1 μM). For state 3 measurements, ADP (2 mM) is included in the buffer, and prior to the addition of Bz-423, mitochondria are allowed to charge for 2 min. To induce state 4, oligomycin (10 μM) is added to buffer C. […] To detect effects on O2^− and delta ψm, mitochondria are incubated for 15 min at 37° C. in buffer C with vehicle, Bz-423, or CCCP containing DHE (5 μM) or DIOC6(3) (20 nM), and aliquots are removed for analysis by fluorescence microscopy.
# O2^− production by Bz-423 may result from binding to a protein within mitochondria or a target in another compartment that signals mitochondria to generate ROS. To distinguish between these alternatives, isolated rat liver mitochondria were assayed for ROS production by monitoring the oxidation of 2′,7′-dichlorodihydrofluorescin diacetate to of 2′,7′-dichlorofluorescin in the presence and absence of Bz-423. In this assay, the rate of DCF production increased after a lag period during which endogenous reducing equivalents were consumed and the acetate moieties on the probe were hydrolyzed to yield 2′,7′-dichlorodihydrofluorescin, the redox-active species.
# [9] = tested on: panel of cells; test: antiproliferation of Bz-Cl against the panel of cells, 3 d; type: cell-based; settings: after 3 d
compound,measurement,setting,value
"CN1C(=O)CN=C(c2ccc(Cl)cc2)c2cc(Cl)ccc21 [4-Cl-diazepam, 4-chlorodiazepam]",inhibition of mitochondrial ATPase activity,[1],do not significantly inhibit
CN1C(=O)C(Cc2ccc3ccccc3c2)N=C(c2ccc(O)cc2)c2cc(Cl)ccc21 (stereo not shown) [Bz-423],cells with collapse of ΔΨm,[2],> 90 % of cells
same,substrate oxidation (redox cycling),[3],does not lead to substrate oxidation
same,ROS response,[4],did not result in an ROS response
same,induction of MIF,[5],approximately 10 fold
same,effect on ODC activity,[6],significantly reduced ODC activity in a dose-dependant fashion
same,cellular effect observed,[7],only apoptosis was observed
same,ROS production,[8],does not stimulate ROS
same,increase of the rate of ROS production versus control,[8],nearly two-fold
CN1C(=O)C(Cc2ccc3ccccc3c2)N=C(c2ccc(Cl)cc2)c2cc(Cl)ccc21 (stereo not shown) [Bz-Cl],ED50 for reduced proliferation compared with Bz-423,[9],comparable ED50 values
CCC(C)N(C)C(=O)c1cc2ccccc2c(-c2ccccc2Cl)n1 (stereo not shown) [PK11195],inhibition of mitochondrial ATPase activity,[1],do not significantly inhibit
antimycin A [reference compound],ROS production,[8],active
same,increase of the rate of ROS production versus control,[8],nearly two-fold
